# Laboratory results from patent US4098995A, “Polygalactosido-sucrose Poly(H-)sulfate salts” (American Cyanamid Company, priority 1976, dated 1978).
# Where “and” joins values, the source holds several entries; their conditions need not be identical. Equal entries are not always repeated. Structures can show the parent of a compound that is named as a salt.
# Legend:
# complement [1] = details: literature; cited from earlier work
# activated human C1 = activated human C1 (Homo sapiens, UniProt P09871); test: Test, Code 026 (C1 inhibitor); type: biochemical; details: serial two-fold dilution assay, higher well number indicates higher activity
# Description: (§1) An active inhibitor protects C2 from C1 and C4; (ii) Test, Code 035 (C3-C9 inhibitor) - This test determines the ability of the late components of human complement (C3-C9) to lyse EAC 142 in the presence of appropriate dilutions of the test compound. An active inhibitor protects EAC 142 from lysis by human C3-C9; (iii) Test, Code 036 (C-Shunt inhibitor) -- In this test human erythrocytes rendered fragile are lysed in autologous serum via the shunt pathway activated by cobra venom factor in the presence of appropriate dilutions of the test compound. Inhibition of the shunt pathway results in failure of lysis; (iv) Forssman Vasculitis Test -- Here, the well known complement dependent lesion, Forssman vasculitis, is produced in guinea pigs by intradermal injection of rabbit anti-Forssman antiserum. The lesion is measured in terms of diameter, edema and hemorrhage and the extent to which a combined index of these is inhibited by prior intraperitoneal injection of the test compound at 200 mg/kg is then reported, unless otherwise stated; (v) Forssman Shock Test -- Lethal shock is produced in guinea pigs by an i.v. injection of anti-Forssman antiserum and the harmonic mean death time of treated guinea pigs is compared with that of simultaneous controls; (vi) Complement Level Reduction Test -- In this test, the above dosed guinea pigs, or others, are bled for serum and the complement level is determined in undiluted serum by the capillary tube method of U.S. Pat. No. 3,876,376 and compared to undosed control guinea pigs; and (vii) Cap 50 Test -- Here, appropriate amounts of the test compound are added to a pool of guinea pig serum in vitro, after which the undiluted serum capillary tube assay referred to above is run. The concentration of compound inhibiting 50% is reported.
# (§2) **Activity in wells, a serial dilution assay. Higher well numer indicates
# (§3) higher activity. The serial dilutions are two-fold.
# shunt pathway = test: Test, Code 036 (C-Shunt inhibitor), lysis of fragile human erythrocytes via shunt pathway activated by cobra venom factor; type: cell-based; details: serial two-fold dilution assay, higher well number indicates higher activity
# Description: as §1, §2, §3
# [2] = literature; cited from earlier work
# [3] = tested on: late components of human complement (C3-C9); test: Test, Code 035 (C3-C9 inhibitor), lysis of EAC 142 by late complement components; type: cell-based; details: serial two-fold dilution assay; higher well number indicates higher activity
# Description: as §1, §2, §3
# complement [4] = test: Complement inhibiting activity, tests disclosed herein
# whole complement = test: Complement Level Reduction Test in dosed guinea pigs (serum whole complement, capillary tube assay); type: in vivo, guinea pig; details: 200 mg/kg
compound,measurement,setting,value
heparin,complement inhibiting activity (reported),complement [1],reported as having complement inhibiting activity
"O=S(=O)(O)OC[C@H]1O[C@H](OC[C@H]2O[C@H](O[C@]3(COS(=O)(=O)O)O[C@H](COS(=O)(=O)O)[C@@H](OS(=O)(=O)O)[C@@H]3OS(=O)(=O)O)[C@H](OS(=O)(=O)O)[C@@H](OS(=O)(=O)O)[C@@H]2OS(=O)(=O)O)[C@H](OS(=O)(=O)O)[C@@H](OS(=O)(=O)O)[C@H]1OS(=O)(=O)O [Raffinose Poly(H--)sulfate Sodium Salt, Raffinose Poly(H-)sulfate Sodium Salt]",In Vitro Activity 026 (activity in wells),activated human C1; Sodium Salt,9 wells
same,In Vitro Activity 036,shunt pathway; Sodium Salt,1 wells
NCCCCCC(=O)O [epsilon-aminocaproic acid],treatment of hereditary angioneurotic edema,[2],used with success
O=S(=O)(O)OC[C@H]1O[C@H](OC[C@H]2O[C@H](O[C@]3(COS(=O)(=O)O)O[C@H](COS(=O)(=O)O)[C@@H](OS(=O)(=O)O)[C@@H]3OS(=O)(=O)O)[C@H](OS(=O)(=O)O)[C@@H](OS(=O)(=O)O)[C@@H]2OS(=O)(=O)O)[C@H](OS(=O)(=O)O)[C@@H](OS(=O)(=O)O)[C@H]1OS(=O)(=O)O [Raffinose Poly(H-)sulfate Triethylamine Salt],In Vitro Activity 026 (activity in wells),activated human C1,10 wells and 9 wells
same,In Vitro Activity 035,[3],N
same,In Vitro Activity 036,shunt pathway,N
Stachyose trisulfate,complement inhibiting activity,complement [4],found lacking in complement inhibiting activity
pentosan polysulfo ester,complement inhibiting activity (reported),complement [1],reported as having complement inhibiting activity
"O=S(=O)(O)OC[C@H]1O[C@H](OC[C@H]2O[C@H](OC[C@H]3O[C@H](O[C@]4(COS(=O)(=O)O)O[C@H](COS(=O)(=O)O)[C@@H](OS(=O)(=O)O)[C@@H]4OS(=O)(=O)O)[C@H](OS(=O)(=O)O)[C@@H](OS(=O)(=O)O)[C@@H]3OS(=O)(=O)O)[C@H](OS(=O)(=O)O)[C@@H](OS(=O)(=O)O)[C@H]2OS(=O)(=O)O)[C@H](OS(=O)(=O)O)[C@@H](OS(=O)(=O)O)[C@H]1OS(=O)(=O)O [Stachyose Poly(H--)sulfate Sodium Salt, Stachyose Poly(H-)sulfate Sodium Salt]",In Vitro Activity 026 (activity in wells),activated human C1; Sodium Salt,13 wells and 11 wells
same,In Vitro Activity 035,[3],N
same,In Vitro Activity 036,shunt pathway; Sodium Salt,4 wells and 2 wells
same,In Vivo Activity (Guinea Pig) Percent Inhibition,"whole complement; intraperitoneal, Time (Hours) 30",-47%
same,In Vivo Activity (Guinea Pig) Percent Inhibition,"whole complement; intraperitoneal, Time (Hours) 60",-56%
same,In Vivo Activity (Guinea Pig) Percent Inhibition,"whole complement; intraperitoneal, Time (Hours) 120",-65%
same,In Vivo Activity (Guinea Pig) Percent Inhibition,"whole complement; intravenous, Time (Hours) 2",-86%
same,In Vivo Activity (Guinea Pig) Percent Inhibition,"whole complement; intravenous, Time (Hours) 30",-93%
same,In Vivo Activity (Guinea Pig) Percent Inhibition,"whole complement; intravenous, Time (Hours) 120",-17%
O=S(=O)(O)OC[C@H]1O[C@H](OC[C@H]2O[C@H](OC[C@H]3O[C@H](O[C@]4(COS(=O)(=O)O)O[C@H](COS(=O)(=O)O)[C@@H](OS(=O)(=O)O)[C@@H]4OS(=O)(=O)O)[C@H](OS(=O)(=O)O)[C@@H](OS(=O)(=O)O)[C@@H]3OS(=O)(=O)O)[C@H](OS(=O)(=O)O)[C@@H](OS(=O)(=O)O)[C@H]2OS(=O)(=O)O)[C@H](OS(=O)(=O)O)[C@@H](OS(=O)(=O)O)[C@H]1OS(=O)(=O)O [Stachyose Poly(H--)sulfate Trimethylamine Salt] [Stachyose Poly(H-)sulfate Trimethylamine Salt],In Vitro Activity 026 (activity in wells),activated human C1,11 wells and 12 wells
same,In Vitro Activity 035,[3],N
O=S(=O)(O)OC[C@H]1O[C@H](OC[C@H]2O[C@H](OC[C@H]3O[C@H](O[C@]4(COS(=O)(=O)O)O[C@H](COS(=O)(=O)O)[C@@H](OS(=O)(=O)O)[C@@H]4OS(=O)(=O)O)[C@H](OS(=O)(=O)O)[C@@H](OS(=O)(=O)O)[C@@H]3OS(=O)(=O)O)[C@H](OS(=O)(=O)O)[C@@H](OS(=O)(=O)O)[C@H]2OS(=O)(=O)O)[C@H](OS(=O)(=O)O)[C@@H](OS(=O)(=O)O)[C@H]1OS(=O)(=O)O [Stachyose Poly(H--)sulfate Triethylamine Salt] [Stachyose Poly(H-)sulfate Triethylamine Salt],In Vitro Activity 026 (activity in wells),activated human C1,14 wells
same,In Vitro Activity 035,[3],N
same,In Vitro Activity 036,shunt pathway,2 wells
NC[C@H]1CC[C@H](C(=O)O)CC1 [tranexamic acid],treatment of hereditary angioneurotic edema,[2],used with success
